Measured values reported in publication PMC8539251, “Peimine, an Anti-Inflammatory Compound from Chinese Herbal Extracts, Modulates Muscle-Type Nicotinic Receptors” (International Journal of Molecular Sciences, 2021).

Assays:
[1] = biological target: T1, muscle-type nicotinic acetylcholine receptor (nAChR) (Torpedo marmorata, UniProt P02711+Q6S3H8+Q6S3H9+Q6S3I0); assay: two-electrode voltage clamp in Xenopus oocytes, agonist concentration-response; format: cell-based
T1 construct: gene CHRNA1; purified native nAChR reconstituted in asolectin lipids, microtransplanted to Xenopus oocytes; with β1, γ and δ nAChR subunits (heteropentamer 2α1, β1, δ, γ)
T1 sequence (P02711 25-461): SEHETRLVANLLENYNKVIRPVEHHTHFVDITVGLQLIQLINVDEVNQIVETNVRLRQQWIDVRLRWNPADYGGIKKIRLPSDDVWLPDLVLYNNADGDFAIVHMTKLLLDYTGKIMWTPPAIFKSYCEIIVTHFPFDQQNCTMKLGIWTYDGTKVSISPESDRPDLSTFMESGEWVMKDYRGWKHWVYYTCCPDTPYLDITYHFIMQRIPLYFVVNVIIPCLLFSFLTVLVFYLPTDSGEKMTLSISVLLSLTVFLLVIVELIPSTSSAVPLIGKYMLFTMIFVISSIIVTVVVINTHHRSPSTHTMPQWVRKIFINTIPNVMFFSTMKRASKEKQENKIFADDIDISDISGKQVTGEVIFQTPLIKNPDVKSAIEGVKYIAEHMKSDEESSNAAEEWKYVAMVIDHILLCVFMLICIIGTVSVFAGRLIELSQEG
T1 sequence (Q6S3I0 25-493): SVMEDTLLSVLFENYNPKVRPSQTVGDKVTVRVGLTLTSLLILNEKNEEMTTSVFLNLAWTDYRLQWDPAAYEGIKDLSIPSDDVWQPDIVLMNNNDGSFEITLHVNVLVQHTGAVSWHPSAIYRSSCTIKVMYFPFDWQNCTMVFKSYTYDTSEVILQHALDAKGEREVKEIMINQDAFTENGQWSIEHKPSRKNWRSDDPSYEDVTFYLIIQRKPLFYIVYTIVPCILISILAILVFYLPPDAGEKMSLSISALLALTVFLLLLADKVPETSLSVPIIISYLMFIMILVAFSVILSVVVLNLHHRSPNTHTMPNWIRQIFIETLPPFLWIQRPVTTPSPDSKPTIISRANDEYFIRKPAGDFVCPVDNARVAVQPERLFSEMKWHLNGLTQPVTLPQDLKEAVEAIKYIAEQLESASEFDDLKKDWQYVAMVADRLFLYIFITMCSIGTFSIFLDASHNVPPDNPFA
T1 sequence (Q6S3H9 18-505): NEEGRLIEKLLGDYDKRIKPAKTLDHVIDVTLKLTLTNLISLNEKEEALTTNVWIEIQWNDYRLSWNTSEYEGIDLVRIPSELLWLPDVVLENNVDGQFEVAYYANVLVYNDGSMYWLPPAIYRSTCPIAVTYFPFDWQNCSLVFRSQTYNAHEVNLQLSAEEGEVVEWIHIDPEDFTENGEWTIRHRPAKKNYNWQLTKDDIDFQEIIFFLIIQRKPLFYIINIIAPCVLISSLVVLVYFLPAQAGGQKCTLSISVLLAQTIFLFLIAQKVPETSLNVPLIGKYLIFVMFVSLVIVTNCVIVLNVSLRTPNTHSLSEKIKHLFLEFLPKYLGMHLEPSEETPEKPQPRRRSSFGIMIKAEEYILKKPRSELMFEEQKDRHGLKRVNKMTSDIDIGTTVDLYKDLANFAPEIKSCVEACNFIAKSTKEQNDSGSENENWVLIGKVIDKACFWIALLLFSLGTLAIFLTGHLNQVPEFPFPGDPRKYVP
T1 sequence (Q6S3H8 22-522): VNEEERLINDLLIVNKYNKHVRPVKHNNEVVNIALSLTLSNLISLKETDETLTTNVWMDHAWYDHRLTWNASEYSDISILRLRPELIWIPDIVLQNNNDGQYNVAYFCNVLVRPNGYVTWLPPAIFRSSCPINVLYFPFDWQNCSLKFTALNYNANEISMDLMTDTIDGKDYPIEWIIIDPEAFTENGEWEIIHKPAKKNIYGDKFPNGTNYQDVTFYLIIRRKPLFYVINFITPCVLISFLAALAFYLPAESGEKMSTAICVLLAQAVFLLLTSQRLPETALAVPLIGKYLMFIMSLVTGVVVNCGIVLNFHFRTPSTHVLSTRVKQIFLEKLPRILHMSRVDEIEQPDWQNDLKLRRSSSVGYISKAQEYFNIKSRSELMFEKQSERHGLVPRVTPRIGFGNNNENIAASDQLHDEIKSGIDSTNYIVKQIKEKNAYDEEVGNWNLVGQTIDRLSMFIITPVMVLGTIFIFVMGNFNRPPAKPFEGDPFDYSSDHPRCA

[2] = biological target: T1, muscle-type nicotinic acetylcholine receptor (nAChR); assay: two-electrode voltage clamp in Xenopus oocytes, inhibition of […] ACh-elicited currents (peak; steady-state IC50 […]); format: cell-based

CC(=O)OCC[N+](C)(C)C [ACh, acetylcholine]
EC50 [1]: 31 µM

C[C@H]1CC[C@@H]2N(C1)C[C@H]1[C@@H]3C[C@H]4[C@@H](C[C@H](O)[C@H]5C[C@@H](O)CC[C@@]54C)[C@@H]3CC[C@@H]1[C@]2(C)O [Pm, Peimine]
IC50 [2]: 2.9 µM
